Results from patent US20160015038A1, “TREATED CROP PLANTS OR PLANT FOOD PRODUCTS WITH DECREASED BACTERIAL VIABILITY AND METHODS AND APPARATUSES FOR MAKING THE SAME” (EP Technologies LLC, priority 2014, published 2016).

How the values were obtained:
S. aureus = S. aureus viability on spinach leaves after plasma-activated mist exposure; format: cell-based; conditions: no plasma mist
E. coli (ATCC 35150) = assay: E. coli viability on spinach leaves after plasma-activated mist exposure; format: cell-based; conditions: no plasma mist
Experimental: E. coli (ATCC 35150) cultures were grown to stationary phase in tryptic soy broth (TSB; Difco, Becton Dickinson, Franklin Lakes, N.J.). Aliquots of the prepared cultures were mixed into a volume of sterile Milli-Q water (Millipore, Billerica, Mass.) that yields an overall bacterial inoculum percentage of 2%. Thirty microliter aliquots of the bacterial culture were used to spot inoculate regions on the leaf surface of each leaf sample. Cultures were air dried on the leaf samples for 1 hour.
An Ultrasonic 360 humidifier (Safety 1st; Columbus, Ind.) was connected to plastic tubing and fed into a custom small-scale plasma generator. The plasma configuration consisted of two parallel brass plate electrodes that have an area of 40 mm×45 mm and thickness of 5 mm. Polyetherimide was used as the housing material for the electrodes. The upper electrode was connected to a high voltage power supply (1-20 kV) with operating parameters that can be adjusted while the lower electrode is grounded. The adjustable outlet of the setup released plasma-activated water mist onto inoculated leaves fixed 2 mm beneath the opening. Plasma-activated water mist was applied to the inoculated leaves at intervals from 15 seconds to 2 minutes. […]
Bacterial viability was […]. […] Data was analyzed using GraphPad Prism and InStat graphical and statistical software (GraphPad Software, Inc., La Jolla, Calif.). […]

O=CC=Cc1ccccc1 [cinnamaldehyde]
log10 reduction of S. aureus caused by additive alone (S. aureus): less than 0.2
log10 reduction of E. coli caused by additive alone (E. coli (ATCC 35150)): < 0.4
